The record followed here is patent US12290513B2, “Therapeutic methods and compositions for treating movement disorders” (Vima Therapeutics, Inc., priority 2023, dated 2025).

A word on the EC50: it is the concentration that produces a half-maximal response.

Data set [1] concerns PCP (antagonist radioligand). The note with it: at the tested concentration; negative values set to zero.
The conditions of data set [2]: dogs.
The target of data set [3] is T1, human M4 receptor (Homo sapiens, UniProt P08173).
T1 construct: expressed in transfected cells; host or cells: CHO (transient transfection)
The data set is described as follows: Calcium flux assay (FLIPR), CHO cells transiently transfected with human M4. The class given is cell-based. As to conditions: agonist mode. As for the experimental part:
(§1) All cells used in the following experiments were clonal populations of Chinese Hamster Ovary (CHO) cells stably expressing the corresponding human muscarinic receptor, except for the M4 cell line, which was a population of CHO cells transiently transfected with the human M4 receptor. […] The procedure was as follows: • 1. Cells were thawed and cultured in cell culture medium (DMEM/F12 containing 10% FBS, 1× penicillin-streptomycin and 600 μg/ml hygromycin B) at 37° C. in 5% (v/v) CO2. • 2. One day before the assays, cells were detached using TrypLE™ and counted using a cell-counter. […] 12,000 cells/well were seeded in 30 μl/well culture medium in a 384-well cell plate and incubated overnight at 37C, 5% (v/v) CO2. • 4. On the assay day, 2× dye solution was prepared following the manual of the FLIPR® Calcium 6 Assay Kit: • i. The dye was diluted with assay buffer (20 mM HEPES in 1× HBSS, PH 7.4); • ii. Probenecid was added to a final concentration of 5 mM; • iii. Cells were vortexed vigorously for 1-2 minutes. • 5. Medium was removed from the cell plate by flicking the cell plate on paper towels. • 6. 10 μl of assay buffer and 10 μl of 2× dye solution was added to each well of the cell plate. • 7. […] Plates were read for 160 sec with 1 sec intervals to obtain the data in agonist mode, then kept at 25° C. in the dark for 30 min. • 11.
A general note: Calcium assays in cells follow changes in intracellular calcium, usually with a dye or a luminescent sensor.

For data set [4], the target named is human muscarinic receptor M1 (Homo sapiens, UniProt P11229). The data set is described as follows: cell-based. On the procedure: (§2) All cells used in the following experiments were clonal populations of Chinese Hamster Ovary (CHO) cells stably expressing the corresponding human muscarinic receptor, except for the M4 cell line, which was a population of CHO cells transiently transfected with the human M4 receptor. […] The procedure was as follows: • 1. Cells were thawed and cultured in cell culture medium (DMEM/F12 containing 10% FBS, 1× penicillin-streptomycin and 600 μg/ml hygromycin B) at 37° C. in 5% (v/v) CO2. • 2. One day before the assays, cells were detached using TrypLE™ and counted using a cell-counter. […] 12,000 cells/well were seeded in 30 μl/well culture medium in a 384-well cell plate and incubated overnight at 37C, 5% (v/v) CO2. • 4. On the assay day, 2× dye solution was prepared following the manual of the FLIPR® Calcium 6 Assay Kit: • i. The dye was diluted with assay buffer (20 mM HEPES in 1× HBSS, PH 7.4); • ii. Probenecid was added to a final concentration of 5 mM; • iii. […] were vortexed vigorously for 1-2 minutes. • 5. Medium was removed from the cell plate by flicking the cell plate on paper towels. • 6. 10 μl of assay buffer and 10 μl of 2× dye solution was added to each well of the cell plate. • 7. The cell plate was shaken on a plate shaker at 600 rpm for 2 minutes and incubated at 37° C. for 2 hours followed by an additional 15-minute incubation at 25° C. • 8. The test compounds were next prepared in assay buffer: • a. All compounds were diluted to the required concentration with DMSO and added to a 384-well compound plate; • b. All compounds were serially diluted; • 1. Starting with 10 mM concentration of each test compound, all samples were serially diluted in 3-fold dilutions. • 2. 90 nl/well of each compound was transferred from the source plate to a 384-well compound plate using an Echo liquid handler. • 3. 30 μl/well assay buffer was added to the compound plate; • c. The plates were mixed on a plate shaker for 2 mins; • 9. The cell plate, compound plate and pipette tips were placed in the FLIPR screening system and 10 μl of each compound was added to a well of the cell plate. • 10. Plates were read for 160 sec with 1 sec intervals to obtain the data in agonist mode, then kept at 25° C. in the dark for 30 min. • 11.

The target in data set [5] is human muscarinic receptor M3 (Homo sapiens, UniProt P20309). Put plainly: cell-based. As for the experimental part: as §2
The target in data set [6] is T2, human muscarinic receptor M2 (Homo sapiens, UniProt P08172).
T2 construct: expressed in transfected cells
The data set is described as follows: Calcium flux assay (FLIPR), CHO cells expressing human M2. It is filed as cell-based. As to conditions: agonist mode. As for the experimental part: (§3) All cells used in the following experiments were clonal populations of Chinese Hamster Ovary (CHO) cells stably expressing the corresponding human muscarinic receptor, except for the M4 cell line, which was a population of CHO cells transiently transfected with the human M4 receptor. Muscarinic agonism and antagonism of each receptor was measured by a quantitative calcium flux assay that is used for multiple classes of G-protein-coupled receptors, or GPCRs, as described elsewhere (e.g., Arkin et al., […], PMID: 22553878). Acetylcholine and atropine were used as positive controls for receptor agonism and antagonism, respectively. The procedure was as follows: • 1. Cells were thawed and cultured in cell culture medium (DMEM/F12 containing 10% FBS, 1× penicillin-streptomycin and 600 μg/ml hygromycin B) at 37° C. in 5% (v/v) CO2. • 2. One day before the assays, cells were detached using TrypLE™ and counted using a cell-counter. Only cells with >85% viability are used for the assay. • 3. […] Plates were read for 160 sec with 1 sec intervals to obtain the data in agonist mode, then kept at 25° C. in the dark for 30 min. • 11. […] Plates were read for 160 sec with 1 sec intervals, thereby measuring the ability for test compounds to antagonize the activation of muscarinic receptors by Ach.

Data set [7] addresses T3, human muscarinic receptor M5 (Homo sapiens, UniProt P08912).
T3 construct: expressed in transfected cells
Put plainly: Calcium flux assay (FLIPR), CHO cells expressing human M5. It is filed as cell-based. As to conditions: agonist mode. As for the experimental part: as §3

For data set [8], the target named is M1 Muscarinic Receptor (Homo sapiens, UniProt P11229). Put plainly: (S)-BTC titration on M1 in the presence of fixed (R)-THP concentrations. It is filed as cell-based. As to conditions: with increasing concentration of (R)-THP (58.5, 195, 585 nM). On the procedure:
as §1

A value given as a limit tells only on which side of the number the result lay.

Regarding `O[C@@](CCN1CCCCC1)(c1ccccc1)C1CCCCC1` [(R)-THP, (R)-trihexyphenidyl], the “signal, PCP (antagonist radioligand)” value in data set [1] amounted to 0.00%. In addition, the “share of total THP that was (R)-THP” value in data set [2] (IV 0.2 mg/kg Racemic THP) is on record as ~60%. Besides, in data set [2] (oral 2 mg/kg Racemic THP, alone or co-dosed with Bethanechol), the “share of serum THP detected that was (R)-THP” value is “over 80%”.

With `C[C@@H](C[N+](C)(C)C)OC(N)=O.[Cl-]` [(S)-BTC, (S)-bethanechol], the EC50 in data set [3] was > 10 µM; in data set [4] it was 195 nM; in data set [5], 20.8 nM; in data set [6], 405 nM; in data set [7], 124 nM. The “agonist effect of (S)-BTC toward the M1 muscarinic receptor” value in data set [8] is listed as “decreases substantially”.
